In assay [1] the target is T1, binding of UEV1 to GST-UBC13 (Homo sapiens, UniProt P61088).
T1 construct: made in house; host or cells: Escherichia coli BL21
T1 sequence (P61088 1-152): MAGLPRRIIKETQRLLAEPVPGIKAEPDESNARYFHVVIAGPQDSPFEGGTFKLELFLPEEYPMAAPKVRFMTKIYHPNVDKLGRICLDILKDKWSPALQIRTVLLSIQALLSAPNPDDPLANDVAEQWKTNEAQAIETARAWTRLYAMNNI
As to the kind of experiment: Purified recombinant protein interaction assay, UEV1 binding to GST-UBC13 on glutathione-Sepharose. Particulars: for UEV1 in the fraction which is eluted and not bound to GST-UBC13: 100 μM; for inhibition of the interaction of UEV1 with UBC13 at lower concentrations: much lower concentrations, of up to 10 nM. Here is the method: To determine the activity of these compounds in acellular assays, protein-protein interaction experiments were performed with recombinant proteins produced in Escherichia coli. To express UBC13 and UEV1, bacterial cells of the E. coli strain BL21 were transformed with plasmids pGEX-4T1-UBC13 or pGEX-4T3-UEV1, transformed colonies being selected by means of growth in plates with ampicillin (100 μg/mL). Individual colonies were transferred to 3 L of LB medium without antibiotics, being grown with stirring at 37° C. until the culture reached the exponential phase (OD600˜0.6), at which time the expression of the recombinant proteins was induced by means of adding isopropyl […] (IPTG, Sigma I-6758) at a concentration of 1 mM for 5 hours to the culture. The cultures were transferred to tubes, centrifuged and the cell pellets were resuspended in twice their volume of phosphate buffered saline (PBS) at pH 7.4 and were broken in a Cell Disruptor instrument (Constant Systems). The cell lysates were filtered through cellulose acetate filters with […] (Millipore SLHA033SS) and were applied to GSTrap FF columns (Amersham Biosciences 17-5131-01). In the case of UEV1, the protein bound specifically to the column was subjected to enzymatic digestion on the same column with 50 units of thrombin (Amersham Biosciences 27-0846-01) at 25° C. overnight. A HiTrapBenzamidine FF column (Amersham Biosciences 27-0846-01) was coupled to the previous column, such that the GST unit was trapped in the first column, and the thrombin in the second column. Then the UEV1 protein was eluted, without the GST portion, followed by a subsequent step of purification by means of gel filtration chromatography with a Superdex 75 column. The GST-UBC13 recombinant protein was expressed as indicated above, being purified by means of affinity chromatography in GSTrap FF columns, followed by filtration chromatography in Superdex 75. The fractions corresponding to the purified proteins were concentrated by means of centrifugation in Centricon YM-10 columns (Millipore 4205), being stored at 4° C. until their use.
To determine the effects of compounds Ia and Ib on the interaction of UBC13 with UEV1, 2 μL of the GST-UBC13 chimeric recombinant protein, at a concentration of […] in a 50 mM Hepes buffer, 100 mM NaCl, 1 mM EDTA, 0.5 mM DTT at pH 7.6 were pre-incubated for 30 minutes at room temperature with the compounds Varubin, Ib or the cyclic control compound VIII-N6-2-1C at final concentrations of 10 nM, 100 nM, 1 μM, 10 μM or 100 μM. […]

The subject of assay [2] is transcriptional activity of NF-κB induced by TNFα. As to the kind of experiment: NF-κB luciferase reporter assay, stimulation by TNFα in HeLa cells. It counts as cell-based. Particulars: TNFα 10 ng/mL; for inhibition of the stimulation of the transcriptional activity of NF-κB induced by TNFα: HeLa cells, different concentrations. Here is the method: To determine the activity of compounds Ia and Ib on the stimulation of the NFκ-B activity by TNFα, assays for inducing luciferase activity (determined with the Dual-Luciferase Reporter Assay System kit, Promega, catalog number E1910) generated by expression of the firefly (Photinus pyralis) luciferase gene directed by a promoter containing three recognition sites for NFκ-B were performed. To that end, HeLa cells were co-transfected with plasmid pRL-TK, encoding the Renilla reniformis Luciferase and being a transfection efficiency control, and plasmid prLUC, a plasmid which allows determining the transcriptional activity of NF-κB, using Fugene (Roche) as a transfection vehicle. 100,000 cells were seeded in 6-well plates (Costar). On the following day, the transfection complex was formed with 0.5 μg of each plasmid and 3 μl of Fugene for 15 minutes. The complex was added to the cells in Optimem medium (InVitrogen), and after 5 hours it was changed to complete medium (Dulbecco's Modified Eagle's Medium with 10% fetal bovine serum, 2 mM of glutamine, supplemented with penicillin and streptomycin), to which the compound Varubin (Ia) or Ib at different concentrations was added or not. On the following day, the cells were incubated with TNFα (10 ng/mL) for 4 hours, after which they were washed with phosphate buffered saline (PBS) and lysated with 250 μL of lysis buffer, following the manufacturer's (Promega) indications. 100 μL of luciferase reagent (LARII) were added to the lysate to measure the firefly luciferase activity, after which the reaction was stopped with 100 μL of stop buffer with Renilla reniformis luciferase substrate, this second activity being determined at that time. The firefly luciferase activity was standardized in relation to the Renilla luciferase activity. The values corresponding to cells transfected but not stimulated with TNFα were used as standardizers for the remaining experimental values. […]
A general note: In a reporter assay the amount or activity of a reporter protein is the signal.

A value given as a limit tells only on which side of the number the result lay.

With `NC(=O)CN(CCc1ccccn1)C(=O)CC1C(=O)N(CCc2ccc(F)cc2)CC(=O)N1CCc1ccc(F)cc1` (stereo not shown) [Ib, 1,4-bis[2′-(4″-fluorophenyl)ethyl]-2-[N-aminocarbonylmethyl-N-(2′-(2″-pyridyl)ethyl)-carbonylmethyl]piperazine-3,6-dione], in assay [1], the “UEV1 in the fraction which is eluted and not bound to GST-UBC13” value is reported as at most 40%; the “inhibition of the interaction of UEV1 with UBC13 at lower concentrations” value was “efficient inhibition”. Moreover, the “inhibition of the stimulation of the transcriptional activity of NF-κB induced by TNFα” value in assay [2] was “inhibits in a dose-dependent manner”.
In general, inhibition refers to the drop in the measured response relative to a control, in per cent. In the case of `NC(=O)CN(CCc1ccccn1)C(=O)C1CC(=O)N(CCc2ccc(F)cc2)CC(=O)N1CCc1ccc(F)cc1` (stereo not shown) [Ia, N-aminocarbamoylmethyl-N-(2′-(2″pyridyl)ethyl)-1,4-bis[2′-(4″-fluorophenyl)ethyl]-3,7-dioxo-[1,4]diazepane-5-carboxamide], in assay [1], the “UEV1 in the fraction which is eluted and not bound to GST-UBC13” value is on record as “up to 60%”; the “inhibition of the interaction of UEV1 with UBC13 at lower concentrations” value is given as “efficient inhibition”. For the same compound, in assay [2], the “inhibition of the stimulation of the transcriptional activity of NF-κB induced by TNFα” value is “inhibits in a dose-dependent manner”. The inhibition at 100 µM in assay [2] (Homo sapiens, HeLa cells pre-incubated at 100 μM, read-out: inhibition of the activation of NF-κB by TNFα) is about 50%.

The values above are taken from patent US8785430B2, “Compound that can inhibit UBC13-UEV interactions, pharmaceutical compositions and therapeutic uses” (Consejo Superior de Investigaciones Cientificas, priority 2006, dated 2014).
